Experimental data from patent US11826347B2, “Anesthetic composition and method of anesthetizing the eye” (priority 2018, dated 2023).
Structures can show the parent of a compound that is named as a salt.

Columns and labels:
Dutch Belted rabbits [1] = experiment: Local anesthetic effect by Cochet-Bonnet esthesiometry; type: in vivo; conditions: topical ocular administration, two drops of 35 μL/eye
Method: (§1) In the ocular tolerability study, a total of twelve male Dutch Belted rabbits divided randomly into four groups, were administered a placebo of phosphate buffered saline (PBS) or articaine at 4%, 8%, or 12% respectively. […] Ophthalmic examinations were performed on dose tolerability animals (Groups 1 through 4) predose and at 5, 10, and 20 minutes, and at 1, 2, 4, and 24 hours post the second eye drop administration in each eye using the modified Hackett-McDonald Scoring System. Following the modified Hackett-McDonald Scoring, local anesthetic effect was monitored in each eye by Cochet-Bonnet esthesiometry predose and at approximately 5, 10, and 20 minutes, and 1 hour following administration of the second eye drop in each eye. […] Topical ocular administration of articaine provided an anesthetic effect out to 20 minutes postdose with no notable tolerability issues.

[2] = rabbit, in vivo
Method: (§2) In the ocular biodistribution study, after a minimum of 72 hours following the completion of the ocular tolerability study, the twelve rabbits were re-assigned to Group 5 for the ocular biodistribution study. Group 6 was added and consisted of 3 naïve rabbits. Group 6 was included to evaluate the potential carryover effect of articaine over a 72 hour period post treatment. Group 5 and 6 animals were administered articaine at 8% and 12% w/v, respectively. Doses were administered via bilateral topical administration (two drops of 35 μL/eye). Group 5 animals were sacrificed at 10 minutes, and 1, 4 and 8 hours post treatment (N=3 at each time point). Group 6 rabbits were sacrificed at 24, 48 and 72 hours post treatment (N=1 at each time point). Just prior to sacrifice blood samples were collected from each animal. Animals were then euthanized and aqueous humor, conjunctivas (palpebral and bulbar), lens, cornea, vitreous humor, iris-ciliary body [ICB], optic nerve, lacrimal gland, retina, and choroid were collected.
(§3) The objectives of this study were to determine the tolerability of placebo and Articaine HCl ophthalmic solutions at concentrations of 4, 8, and 12% (w/v) following topical eye drop administration, and to determine the ocular pharmacokinetics and biodistribution of articaine and articainic acid following topical eye drop administration of 8% Articaine HCl ophthalmic solution.

in vivo = conditions: male, Dutch Belted, rabbit, topical or ocular
Method: as §2, §3

Dutch Belted rabbits [3] = type: in vivo; conditions: articaine 4%, 8%, or 12%, bilateral topical, two drops of 35 μL/eye, observed 24 hours
Method: Two subparts of one study were conducted on Dutch Belted rabbits, namely, an ocular tolerability study followed by an ocular biodistribution study.
as §1

[4] = in vivo; cited from earlier work
[5] = Ocular biodistribution / pharmacokinetics study
Method: as §2, §3

residual concentrations in ocular matrices ([5]; 12% articaine topical, 24, 48, and 72 hours postdose)	ratio of AUC0-last articainic acid over AUC0-last articaine ([5]; all other matrices)	ratio of AUC0-last articainic acid over AUC0-last articaine ([5]; cornea)	T1/2 (half-life) ([5]; plasma)	ratio of AUC0-last articainic acid over AUC0-last articaine ([5]; plasma)	Plasma Cmax ([5]; plasma, 8% articaine topical, two drops of 35 μL/eye) [ng/mL]	Compound	anesthetic effect, time postdose (Dutch Belted rabbits [1]) [min]	systemic exposure, as indicated by plasma AUC [2]	Tmax (in vivo) [min]	Cmax (in vivo; Plasma Cmax) [ng/mL]	tolerability / treatment related adverse effects (Dutch Belted rabbits [3])	excreted as the metabolites [4] [%]	protein binding [4]	renally excreted unchanged [4]
						CCCNC(C)C(=O)Nc1c(C)csc1C(=O)OC (centres unmarked) [articaine, 4-methyl-3 (2-[propylamino]proprioamido)-2-thiophenecarboxylic acid, methyl ester hydrochloride]	20	minimal	10	457	well tolerated in all animals at concentrations up to 12% w/v	89	highly protein bound	Five to ten
Low residual concentrations	< 0.7	approximately 2	approximately 1.5 hours	approximately 2	217	Articainic acid								
